In ChEMBL document CHEMBL5154682, “TDP-43 Modulation by Tau-Tubulin Kinase 1 Inhibitors: A New Avenue for Future Amyotrophic Lateral Sclerosis Therapy” (J Med Chem, 2022):

Key:
[1] = Permeability of the compound at pH 7.4 PBS/EtOH buffer (70:30) by PAMPA-BBB assay
Tau-tubulin kinase 2 = Tau-tubulin kinase 2 (Homo sapiens, UniProt Q6IQ55)
[2] = Selectivity index, ratio of IC50 for recombinant human TTBK1 to IC50 for recombinant human TTBK2
Tau-tubulin kinase 1 = Tau-tubulin kinase 1 (Homo sapiens, UniProt Q5TCY1)
Sequence of Tau-tubulin kinase 1 (Q5TCY1 whole entry): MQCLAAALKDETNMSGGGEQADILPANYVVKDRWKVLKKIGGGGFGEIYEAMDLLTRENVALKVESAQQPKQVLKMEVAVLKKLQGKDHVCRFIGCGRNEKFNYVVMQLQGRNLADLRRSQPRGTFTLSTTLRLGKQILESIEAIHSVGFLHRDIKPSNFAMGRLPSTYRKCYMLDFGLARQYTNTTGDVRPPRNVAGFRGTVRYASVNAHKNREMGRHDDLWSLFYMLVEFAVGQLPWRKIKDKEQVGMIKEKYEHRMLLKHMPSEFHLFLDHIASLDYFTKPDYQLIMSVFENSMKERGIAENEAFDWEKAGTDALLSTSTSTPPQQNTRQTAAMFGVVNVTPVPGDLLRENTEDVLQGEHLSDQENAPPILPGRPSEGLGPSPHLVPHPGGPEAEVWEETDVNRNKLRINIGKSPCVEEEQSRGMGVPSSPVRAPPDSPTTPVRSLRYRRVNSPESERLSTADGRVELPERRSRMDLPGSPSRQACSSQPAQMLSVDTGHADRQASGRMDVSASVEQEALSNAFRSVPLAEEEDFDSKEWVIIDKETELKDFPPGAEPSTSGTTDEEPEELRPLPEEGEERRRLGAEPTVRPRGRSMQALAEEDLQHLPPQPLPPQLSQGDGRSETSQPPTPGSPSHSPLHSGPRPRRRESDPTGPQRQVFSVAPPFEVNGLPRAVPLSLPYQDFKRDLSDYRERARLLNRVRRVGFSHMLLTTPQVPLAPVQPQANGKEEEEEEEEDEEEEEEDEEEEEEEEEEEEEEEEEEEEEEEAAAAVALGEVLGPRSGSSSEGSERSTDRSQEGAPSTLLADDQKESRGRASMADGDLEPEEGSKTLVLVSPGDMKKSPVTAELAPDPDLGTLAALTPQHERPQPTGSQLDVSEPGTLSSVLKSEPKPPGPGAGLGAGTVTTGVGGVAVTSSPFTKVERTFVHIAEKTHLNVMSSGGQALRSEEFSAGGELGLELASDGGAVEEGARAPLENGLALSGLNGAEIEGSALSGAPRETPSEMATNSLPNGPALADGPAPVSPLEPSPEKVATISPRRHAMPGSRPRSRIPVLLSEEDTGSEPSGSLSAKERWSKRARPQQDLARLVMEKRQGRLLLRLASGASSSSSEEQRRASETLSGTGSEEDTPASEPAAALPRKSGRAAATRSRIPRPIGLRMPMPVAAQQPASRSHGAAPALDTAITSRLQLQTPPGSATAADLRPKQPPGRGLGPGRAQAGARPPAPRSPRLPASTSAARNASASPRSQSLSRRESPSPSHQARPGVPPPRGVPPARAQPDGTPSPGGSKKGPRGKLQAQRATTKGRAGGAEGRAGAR

Sequence of Tau-tubulin kinase 2 (Q6IQ55 whole entry): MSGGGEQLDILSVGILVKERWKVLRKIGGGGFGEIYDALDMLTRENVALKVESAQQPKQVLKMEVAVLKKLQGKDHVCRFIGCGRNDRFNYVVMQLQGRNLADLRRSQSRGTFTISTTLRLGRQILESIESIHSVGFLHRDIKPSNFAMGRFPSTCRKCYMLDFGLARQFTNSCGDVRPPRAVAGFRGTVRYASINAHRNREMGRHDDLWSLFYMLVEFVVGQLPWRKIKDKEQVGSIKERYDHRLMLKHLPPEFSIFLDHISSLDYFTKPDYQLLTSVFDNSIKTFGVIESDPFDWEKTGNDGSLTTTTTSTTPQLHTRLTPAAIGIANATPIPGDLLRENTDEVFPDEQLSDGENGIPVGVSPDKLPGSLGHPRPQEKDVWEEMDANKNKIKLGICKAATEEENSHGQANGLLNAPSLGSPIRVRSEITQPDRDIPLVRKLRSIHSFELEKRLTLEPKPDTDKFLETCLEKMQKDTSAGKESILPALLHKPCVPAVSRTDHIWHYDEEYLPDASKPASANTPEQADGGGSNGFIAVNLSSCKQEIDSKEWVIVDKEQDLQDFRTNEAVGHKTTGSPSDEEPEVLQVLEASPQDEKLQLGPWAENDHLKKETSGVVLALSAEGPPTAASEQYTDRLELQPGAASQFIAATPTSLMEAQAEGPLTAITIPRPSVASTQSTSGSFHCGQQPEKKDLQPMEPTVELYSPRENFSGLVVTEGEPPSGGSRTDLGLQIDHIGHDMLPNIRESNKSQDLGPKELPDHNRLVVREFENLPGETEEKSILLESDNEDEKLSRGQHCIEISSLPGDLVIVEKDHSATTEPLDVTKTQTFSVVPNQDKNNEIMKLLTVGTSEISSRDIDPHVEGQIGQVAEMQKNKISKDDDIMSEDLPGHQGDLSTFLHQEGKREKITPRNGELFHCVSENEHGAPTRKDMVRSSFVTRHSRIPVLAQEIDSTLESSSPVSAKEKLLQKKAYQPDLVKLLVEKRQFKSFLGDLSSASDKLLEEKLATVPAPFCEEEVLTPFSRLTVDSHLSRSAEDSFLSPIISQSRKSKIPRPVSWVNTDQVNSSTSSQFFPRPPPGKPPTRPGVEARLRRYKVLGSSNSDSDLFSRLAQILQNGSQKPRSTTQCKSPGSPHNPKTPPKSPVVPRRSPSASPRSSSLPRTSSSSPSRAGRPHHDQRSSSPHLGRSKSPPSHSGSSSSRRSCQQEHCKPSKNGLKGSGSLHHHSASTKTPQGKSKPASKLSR

For `c1ccc(Oc2ccc(Nc3ncnc4[nH]ccc34)cc2)cc1`, the permeability [1] was “Permeable”.

For `Brc1ccc(Oc2ccc(Nc3ncnc4[nH]ccc34)cc2)cc1`, the permeability [1] was “Permeable”.

With `Oc1cccc(Nc2ncnc3[nH]ccc23)c1` the IC50 (Tau-tubulin kinase 2) was 6.7 µM, the Selectivity Index [2] was 0.9 and the IC50 (Tau-tubulin kinase 1) was 6.1 µM.

For `c1cncc(Oc2ccc(Nc3ncnc4[nH]ccc34)cc2)c1`, the IC50 (Tau-tubulin kinase 2) was 6.05 µM, the Selectivity Index [2] was 0.12 and the IC50 (Tau-tubulin kinase 1) was 0.75 µM. The permeability [1] was “Impermeable”.

For `c1ccc(COc2ccc(Nc3ncnc4[nH]ccc34)cc2)cc1`, the permeability [1] was “Permeable”.

`CC(=O)c1ccc(Nc2ncnc3[nH]ccc23)cc1` showed an IC50 (Tau-tubulin kinase 2) of 9.3 µM, a Selectivity Index [2] of 0.46 and an IC50 (Tau-tubulin kinase 1) of 4.3 µM.

Work on `Clc1ccc(Oc2ccc(Nc3ncnc4[nH]ccc34)cc2)cc1Cl` yielded an IC50 (Tau-tubulin kinase 2) of 5.72 µM, a Selectivity Index [2] of 0.4 and an IC50 (Tau-tubulin kinase 1) of 2.3 µM. For the same compound, the permeability [1] was “Permeable”.

In the case of `COc1ccc(Oc2ccc(Nc3ncnc4[nH]ccc34)cc2)cc1`, the permeability [1] is reported as “Permeable”.

Compound `Clc1ccc(Cn2cc(COc3ccc(Nc4ncnc5[nH]ccc45)cc3)nn2)cc1` has an IC50 (Tau-tubulin kinase 2) of 2.87 µM, a Selectivity Index [2] of 0.21 and an IC50 (Tau-tubulin kinase 1) of 0.61 µM. The permeability [1] was “Impermeable”.

With `O=[N+]([O-])c1ccc(Oc2ccc(Nc3ncnc4[nH]ccc34)cc2)cc1` the permeability [1] was “Permeable”.

`c1cc(Nc2ncnc3[nH]ccc23)cc(N2CCOCC2)c1` gave an IC50 (Tau-tubulin kinase 2) of 5.7 µM, a Selectivity Index [2] of 0.82 and an IC50 (Tau-tubulin kinase 1) of 4.7 µM.

With `Cc1cccc(Oc2ccc(Nc3ncnc4[nH]ccc34)cc2)c1` the permeability [1] was “Permeable”.

For `Nc1ccc(Sc2ccc(Nc3ncnc4[nH]ccc34)cc2)cc1`, the permeability [1] was “Permeable”.

`Cc1ccc(Cn2cc(COc3ccc(Nc4ncnc5[nH]ccc45)cc3)nn2)cc1` gave an IC50 (Tau-tubulin kinase 2) of 1.75 µM, a Selectivity Index [2] of 0.57 and an IC50 (Tau-tubulin kinase 1) of 0.99 µM. For the same compound, the permeability [1] was “Impermeable”.

For `Oc1ccc(Nc2ncnc3[nH]ccc23)cc1`, the IC50 (Tau-tubulin kinase 2) was 7.4 µM, the Selectivity Index [2] was 0.45 and the IC50 (Tau-tubulin kinase 1) was 3 µM.

Compound `Clc1ccc(CCNc2ncnc3[nH]ccc23)cc1` has an IC50 (Tau-tubulin kinase 2) of 86 µM and an IC50 (Tau-tubulin kinase 1) of 18.2 µM.

For `Clc1ccccc1Oc1ccc(Nc2ncnc3[nH]ccc23)cc1`, the permeability [1] was “Permeable”.

`Oc1ccc(CCNc2ncnc3[nH]ccc23)cc1` gave an IC50 (Tau-tubulin kinase 2) of 37.7 µM, a Selectivity Index [2] of 0.33 and an IC50 (Tau-tubulin kinase 1) of 12.8 µM.

In the case of `CN(C)CCCN1c2ccccc2Sc2ccccc21` [PROMAZINE], the permeability [1] is reported as “Permeable”.

In the case of `c1nc(Nc2ccc(N3CCOCC3)cc2)c2cc[nH]c2n1`, the IC50 (Tau-tubulin kinase 2) is reported as 15.7 µM, the Selectivity Index [2] is reported as 0.3 and the IC50 (Tau-tubulin kinase 1) is reported as 4.9 µM.

With `CCn1cc(C(=O)O)c(=O)c2cc(F)c(N3CCNCC3)nc21` [ENOXACIN] the permeability [1] was “Permeable”.

With `Nc1nc(Nc2ccc(Oc3cccc(C(F)(F)F)c3)cc2)c2cc[nH]c2n1` the Selectivity Index [2] was 0.33 and the permeability [1] was “Permeable”.

In the case of `Nc1nc(Nc2ccc(Oc3cccc(Cl)c3)cc2)c2cc[nH]c2n1`, the Selectivity Index [2] is reported as 0.12 and the permeability [1] is reported as “Permeable”.

With `CN1C(C(=O)Nc2ccccn2)=C(O)c2ccccc2S1(=O)=O` [PIROXICAM] the permeability [1] was “Permeable”.

With `Cn1c(=O)c2c(ncn2C)n(C)c1=O` [CAFFEINE] the permeability [1] was “Permeable”.

Compound `COC(=O)c1cc(Nc2ncnc3[nH]ccc23)ccc1Br` has an IC50 (Tau-tubulin kinase 2) of 4.2 µM and an IC50 (Tau-tubulin kinase 1) of 2.2 µM.

For `CNCCCN1c2ccccc2CCc2ccccc21` [DESIPRAMINE], the permeability [1] was “Permeable”.

For `Clc1cccc(Nc2ncnc3[nH]ccc23)c1`, the IC50 (Tau-tubulin kinase 2) was 13.9 µM, the Selectivity Index [2] was 1.09 and the IC50 (Tau-tubulin kinase 1) was 15.2 µM.

In the case of `Clc1ccccc1Nc1ncnc2[nH]ccc12`, the IC50 (Tau-tubulin kinase 2) is reported as 42.1 µM, the Selectivity Index [2] is reported as 0.51 and the IC50 (Tau-tubulin kinase 1) is reported as 21.8 µM.

`Clc1ccc(Nc2ncnc3[nH]ccc23)cc1` showed an IC50 (Tau-tubulin kinase 2) of 20.3 µM, a Selectivity Index [2] of 0.15 and an IC50 (Tau-tubulin kinase 1) of 3.2 µM.

In the case of `Nc1nc(Nc2ccc(Oc3ccc(Cl)cc3)cc2)c2cc[nH]c2n1`, the permeability [1] is reported as “Permeable”.

For `O=C(c1ccc(F)cc1)c1ccc(Nc2ncnc3[nH]ccc23)cc1`, the permeability [1] was “Permeable”.

With `Fc1ccc(Oc2ccc(Nc3ncnc4[nH]ccc34)cc2)cc1` the Selectivity Index [2] was 0.25 and the permeability [1] was “Permeable”.
